Numbered stars: 1 amine (or outer) side, 2 acyl side, 3 side chain; on linkers, the order of the positions; unused ones are H or OH. Bridge positions count the residues as written; N and C are the ends. Square brackets hold non-standard residues; d marks the D form. Peptide text beside a SMILES is read from it. I, II: the chains in the order shown. Phe(3,4-Cl2) = N[C@@H](Cc1ccc(Cl)c(Cl)c1)C(=O)O; Phe(2,4-Cl2) = N[C@@H](Cc1ccc(Cl)cc1Cl)C(=O)O; 1Nal = N[C@@H](Cc1cccc2ccccc12)C(=O)O; 2Nal = N[C@@H](Cc1ccc2ccccc2c1)C(=O)O; Diglycolyl = O=C(COCC(=O)[*:2])[*:1]; NMeR = CN[C@@H](CCCNC(=N)N)C(=O)O; Pen = CC(C)(S)[C@H](N)C(=O)O; dNMeK = CN[C@H](CCCCN)C(=O)O
Tests used:
[1] = Simulated Intestinal Fluid (SIF) Stability Assay; format: in vitro ADME, porcine; details: > means experiment was stopped at that time and half life was not reached; for half-life at 22 μM: pig, simulated intestinal fluid (SIF) with 1% porcine pancreatin, pH 6.5, Table 3-B, read-out: Stabilty SIF t1/2
In short: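 Peptides (22 μM final) incubated at 37 °C in FASSIF (pH 6.5) with 1% porcine pancreatin; aliquots quenched at various times and analyzed by LC-MS/MS against internal standard. Half-life from first-order exponential decay fit of percent remaining.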

[2] = target: α4β7 (Homo sapiens, UniProt P13612+P26010); assay: α4β7-MAdCAM Cell Adhesion Assay (RPMI 8866 human cells); format: cell-based; parameters: host or cells: RPMI 8866 human B lymphoblastoid cells; details: Table 3-B, Potency (α4β7); range classes; read-out: α4β7 cell (Hu) IC50
In short: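 Washed RPMI 8866 cells (200,000/well) in DMEM with 0.1% BSA, 10 mM HEPES pH 7, 1 mM MnCl2 adhered to rh MAdCAM-1/Fc-coated wells with serially diluted peptides, 30-45 min at 37 °C. After three washes, bound cells quantified by MTT, A570, cell-free background subtracted for dose response.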

[3] = target: T1, rh integrin α4β7 (Homo sapiens, UniProt P13612+P26010); assay: α4β7-MAdCAM Competition ELISA; format: binding; details: Table 3-B, Potency (α4β7); range classes; read-out: α4β7 ELISA IC50
T1 construct: purchased R&D Systems 5397-A30
In short: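 Recombinant human α4β7 was captured on nickel plates at 800 ng/well. Peptide in 3-fold serial dilution (final top 10 μM) competed with MAdCAM-1 (final 10 nM) for 1 h at room temperature in 50 mM Tris pH 7.6, 150 mM NaCl, 1 mM MnCl2 or MgCl2. Bound MAdCAM-1 was detected with anti-human IgG1-HRP/TMB at A450.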

[4] = target: T2, α4β1 (Homo sapiens, UniProt P05556+P13612, DEL729-798); assay: α4β1-VCAM Competition ELISA; format: binding; details: Table 3-B, Selectivity (α4β1); range classes; read-out: α4β1 ELISA IC50
T2 construct: purchased R&D Systems 5668-A4
Procedure: A Nunc MaxiSorp plate was coated with rh VCAM-1/CD106 Fc chimera (R&D #862-VC) at 400 ng/well in 50 ul per well in 1×PBS and incubated overnight at 4° C. The solution was removed by shaking and then blocked with 250 ul of 1% BSA in 1×PBS per well. The wells were then incubated at room temperature for 1 hr with shaking. Each well was then washed once with wash buffer (50 mM Tris-HCl pH7.6, 100 mM NaCL, 1 mM MnCl2 or MgCl2, 0.05% Tween-20). 25 ul of serial dilutions of peptides starting at 200 μM in assay buffer (Assay buffer: 50 mM Tris-HCl pH7.6, 100 mM NaCl, 1 mM MnCl2 or MgCl2, 0.05% Tween-20) was added to each well. Additionally, 25 ul of α4β1 (R&D Systems #5668-A4) was added to each well at a fixed concentration of 120 nM. The final peptide and α4β1 concentrations were 100 μM and 60 nM, respectively. The plates were then incubated at 37° C. for 2 hr. The solution was then removed by shaking, and each well was washed three times with wash buffer. 50 ul of 9F10 antibody at 4 ug/ml (purified mouse anti-human CD49d, BD Bioscience Cat#555502) was then added to each well, and the plate was incubated at room temperature for 1 hr with shaking. The solution was again removed by shaking, and each well was washed three times with wash buffer. 50 ul of peroxidase-conjugated AffiniPure Goat anti-mouse IgG (Jackson immune research cat #115-035-003) diluted in 1:5000 in assay buffer was added to each well. The plate was incubated at room temperature for 30 min with shaking. Each well was then washed 3 times with wash buffer. 100 ul of TMB was then added to each well and closely observe during developing time. The reaction was stepped with 2N H2SO4 and absorbance was read at 450 nm.

T1 sequence (P13612 34-977 limits assumed): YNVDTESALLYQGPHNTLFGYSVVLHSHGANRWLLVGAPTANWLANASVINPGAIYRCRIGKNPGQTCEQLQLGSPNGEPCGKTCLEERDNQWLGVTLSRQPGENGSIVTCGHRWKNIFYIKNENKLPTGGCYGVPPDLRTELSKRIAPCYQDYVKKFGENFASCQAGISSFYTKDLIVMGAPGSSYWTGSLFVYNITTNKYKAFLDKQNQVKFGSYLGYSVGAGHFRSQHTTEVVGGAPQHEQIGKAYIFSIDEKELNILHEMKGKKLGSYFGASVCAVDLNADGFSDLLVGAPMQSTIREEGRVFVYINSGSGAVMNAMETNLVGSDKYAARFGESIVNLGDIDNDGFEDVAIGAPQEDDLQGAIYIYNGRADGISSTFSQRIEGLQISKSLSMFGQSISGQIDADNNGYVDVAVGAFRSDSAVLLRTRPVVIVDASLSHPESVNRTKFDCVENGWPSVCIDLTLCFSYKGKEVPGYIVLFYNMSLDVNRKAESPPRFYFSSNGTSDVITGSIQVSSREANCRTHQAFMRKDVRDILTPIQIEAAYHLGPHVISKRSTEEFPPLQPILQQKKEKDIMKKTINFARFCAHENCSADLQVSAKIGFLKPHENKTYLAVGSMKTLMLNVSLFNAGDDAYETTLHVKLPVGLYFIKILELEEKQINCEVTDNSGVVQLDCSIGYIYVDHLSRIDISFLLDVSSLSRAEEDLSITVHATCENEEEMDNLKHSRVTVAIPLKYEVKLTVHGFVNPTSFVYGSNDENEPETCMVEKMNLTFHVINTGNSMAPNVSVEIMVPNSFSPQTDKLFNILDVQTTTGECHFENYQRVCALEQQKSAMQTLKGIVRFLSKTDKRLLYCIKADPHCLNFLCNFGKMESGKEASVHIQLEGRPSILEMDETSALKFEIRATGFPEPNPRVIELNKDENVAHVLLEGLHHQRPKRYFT
T1 sequence (P26010 20-723 limits assumed): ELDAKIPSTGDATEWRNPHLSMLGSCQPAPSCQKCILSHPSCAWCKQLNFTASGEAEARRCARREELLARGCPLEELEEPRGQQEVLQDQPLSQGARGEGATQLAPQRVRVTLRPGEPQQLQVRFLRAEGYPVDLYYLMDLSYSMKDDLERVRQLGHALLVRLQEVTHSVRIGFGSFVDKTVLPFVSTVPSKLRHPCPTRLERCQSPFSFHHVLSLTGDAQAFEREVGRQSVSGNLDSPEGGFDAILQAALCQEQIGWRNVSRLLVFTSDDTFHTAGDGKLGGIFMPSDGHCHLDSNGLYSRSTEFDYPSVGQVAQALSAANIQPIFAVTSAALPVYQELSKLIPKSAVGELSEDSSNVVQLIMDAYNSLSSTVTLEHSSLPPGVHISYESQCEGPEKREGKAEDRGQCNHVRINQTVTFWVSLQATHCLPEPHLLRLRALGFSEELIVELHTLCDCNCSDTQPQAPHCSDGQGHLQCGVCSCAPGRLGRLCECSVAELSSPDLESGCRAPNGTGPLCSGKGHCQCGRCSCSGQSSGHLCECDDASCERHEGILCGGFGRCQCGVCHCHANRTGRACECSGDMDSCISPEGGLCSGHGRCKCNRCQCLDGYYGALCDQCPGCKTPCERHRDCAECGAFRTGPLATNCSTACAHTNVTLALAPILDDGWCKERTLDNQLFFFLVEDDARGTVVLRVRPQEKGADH
T2 sequence (P13612 34-977 limits assumed, stated change not applied): as the sequence (P13612 34-977 limits assumed) above
T2 sequence (P05556 21-728 limits assumed, stated change not applied): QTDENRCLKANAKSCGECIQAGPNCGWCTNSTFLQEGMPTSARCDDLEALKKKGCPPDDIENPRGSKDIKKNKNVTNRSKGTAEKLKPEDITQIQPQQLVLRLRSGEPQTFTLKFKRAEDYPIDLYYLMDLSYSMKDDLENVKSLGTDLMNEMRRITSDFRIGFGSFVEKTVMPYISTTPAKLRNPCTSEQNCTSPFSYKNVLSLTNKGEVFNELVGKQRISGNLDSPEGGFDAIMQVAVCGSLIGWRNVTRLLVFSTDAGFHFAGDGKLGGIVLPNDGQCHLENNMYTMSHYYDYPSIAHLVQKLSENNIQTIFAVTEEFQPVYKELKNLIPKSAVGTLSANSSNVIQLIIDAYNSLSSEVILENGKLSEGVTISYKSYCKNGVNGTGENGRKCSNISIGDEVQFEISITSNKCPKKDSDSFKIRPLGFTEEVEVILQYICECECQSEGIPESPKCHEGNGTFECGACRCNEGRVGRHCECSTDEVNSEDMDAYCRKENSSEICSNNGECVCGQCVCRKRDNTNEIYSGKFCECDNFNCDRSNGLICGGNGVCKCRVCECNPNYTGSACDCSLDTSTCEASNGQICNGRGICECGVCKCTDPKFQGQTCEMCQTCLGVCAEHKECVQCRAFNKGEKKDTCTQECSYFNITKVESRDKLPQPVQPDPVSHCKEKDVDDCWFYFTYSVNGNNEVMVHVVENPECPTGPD
Chain of α4β7 (P13612 34-1032): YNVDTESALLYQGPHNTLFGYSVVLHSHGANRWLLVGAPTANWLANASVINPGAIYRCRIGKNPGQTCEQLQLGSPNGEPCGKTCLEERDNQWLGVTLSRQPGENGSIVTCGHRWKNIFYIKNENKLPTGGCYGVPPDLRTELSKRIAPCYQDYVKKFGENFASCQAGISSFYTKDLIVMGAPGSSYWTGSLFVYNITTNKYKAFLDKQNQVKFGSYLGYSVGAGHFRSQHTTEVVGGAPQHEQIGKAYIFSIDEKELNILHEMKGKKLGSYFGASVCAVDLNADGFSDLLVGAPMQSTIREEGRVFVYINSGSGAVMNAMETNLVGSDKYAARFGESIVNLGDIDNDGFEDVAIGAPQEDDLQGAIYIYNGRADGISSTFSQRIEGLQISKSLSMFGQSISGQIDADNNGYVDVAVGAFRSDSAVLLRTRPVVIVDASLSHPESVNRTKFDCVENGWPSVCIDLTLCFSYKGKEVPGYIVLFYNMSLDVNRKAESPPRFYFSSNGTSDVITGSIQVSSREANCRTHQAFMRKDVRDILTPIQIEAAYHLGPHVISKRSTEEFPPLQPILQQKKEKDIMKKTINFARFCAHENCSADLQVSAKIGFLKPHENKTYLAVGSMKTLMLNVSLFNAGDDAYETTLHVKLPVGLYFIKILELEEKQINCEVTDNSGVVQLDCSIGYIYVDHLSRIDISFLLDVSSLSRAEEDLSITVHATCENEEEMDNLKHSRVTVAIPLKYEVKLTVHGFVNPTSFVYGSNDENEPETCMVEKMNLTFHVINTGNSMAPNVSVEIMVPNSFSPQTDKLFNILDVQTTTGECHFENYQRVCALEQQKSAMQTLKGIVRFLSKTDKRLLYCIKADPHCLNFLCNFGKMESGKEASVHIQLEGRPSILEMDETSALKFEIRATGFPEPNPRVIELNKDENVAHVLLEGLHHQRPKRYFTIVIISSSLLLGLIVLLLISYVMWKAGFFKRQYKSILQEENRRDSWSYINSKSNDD
Chain of α4β7 (P26010 20-798): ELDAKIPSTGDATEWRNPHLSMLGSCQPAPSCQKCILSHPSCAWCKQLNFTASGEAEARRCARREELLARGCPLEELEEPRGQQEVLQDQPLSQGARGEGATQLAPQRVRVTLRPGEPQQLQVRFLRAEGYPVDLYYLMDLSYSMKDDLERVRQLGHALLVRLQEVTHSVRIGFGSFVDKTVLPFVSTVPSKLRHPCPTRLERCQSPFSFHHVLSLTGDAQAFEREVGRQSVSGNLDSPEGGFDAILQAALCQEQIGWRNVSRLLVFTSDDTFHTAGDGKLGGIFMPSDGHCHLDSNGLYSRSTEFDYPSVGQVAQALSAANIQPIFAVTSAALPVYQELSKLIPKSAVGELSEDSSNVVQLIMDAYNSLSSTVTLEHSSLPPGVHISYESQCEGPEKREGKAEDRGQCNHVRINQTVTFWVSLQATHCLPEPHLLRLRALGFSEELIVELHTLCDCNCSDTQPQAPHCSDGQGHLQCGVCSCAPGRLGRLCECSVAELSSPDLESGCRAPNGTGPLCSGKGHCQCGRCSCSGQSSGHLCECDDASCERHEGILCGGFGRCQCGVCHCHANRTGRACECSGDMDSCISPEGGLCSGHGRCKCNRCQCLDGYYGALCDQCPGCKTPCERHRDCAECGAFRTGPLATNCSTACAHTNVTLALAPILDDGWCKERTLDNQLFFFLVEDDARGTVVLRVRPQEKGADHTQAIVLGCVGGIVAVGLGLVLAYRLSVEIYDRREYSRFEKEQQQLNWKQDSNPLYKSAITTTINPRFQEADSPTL

SMILES	half-life at 22 μM [1]	IC50 [2]	IC50 [3]	IC50 [4]	Stabilty SIF t1/2 ([1]; Table 3-B)
CC(=O)N[C@@H]1C(=O)N(C)[C@@H](CCCNC(=N)N)C(=O)N[C@@H](CO)C(=O)N[C@@H](CC(=O)O)C(=O)N[C@@H]([C@@H](C)O)C(=O)N[C@@H](CC(C)C)C(=O)N[C@H](C(=O)N[C@@H](Cc2cccc3ccccc23)C(=O)N[C@H](CCC(=O)O)C(=O)N[C@H](CCCCNC(=O)COCC(=O)NCCCC[C@@H](NC(=O)[C@@H](CCC(=O)O)NC(=O)[C@H](Cc2cccc3ccccc23)NC(=O)[C@H]2NC(=O)[C@H](CC(C)C)NC(=O)[C@H]([C@@H](C)O)NC(=O)[C@H](CC(=O)O)NC(=O)[C@H](CO)NC(=O)[C@H](CCCNC(=N)N)N(C)C(=O)[C@@H](NC(C)=O)C(C)(C)SSC2(C)C)C(N)=O)C(N)=O)C(C)(C)SSC1(C)C [compound 32] (I: Ac-[Pen][NMeR]SDTL[Pen][1Nal][dE][dK]-NH2 / II: Ac-[Pen][NMeR]SDTL[Pen][1Nal][dE][dK]-NH2; disulfide I:1-I:7, II:1-II:7; linker I:10-II:10 via Diglycolyl)	> 180 min	0.01 to 0.025 µM	< 0.01 µM	0.1 to 0.5 µM	
CC(=O)N[C@@H]1C(=O)N(C)[C@@H](CCCNC(=N)N)C(=O)N[C@@H](CO)C(=O)N[C@@H](CC(=O)O)C(=O)N[C@@H]([C@@H](C)O)C(=O)N[C@@H](CC(C)C)C(=O)N[C@H](C(=O)N[C@@H](Cc2cccc3ccccc23)C(=O)N[C@H](CCC(=O)O)C(=O)N(C)[C@H](CCCCNC(=O)COCC(=O)NCCCC[C@H](C(N)=O)N(C)C(=O)[C@@H](CCC(=O)O)NC(=O)[C@H](Cc2cccc3ccccc23)NC(=O)[C@H]2NC(=O)[C@H](CC(C)C)NC(=O)[C@H]([C@@H](C)O)NC(=O)[C@H](CC(=O)O)NC(=O)[C@H](CO)NC(=O)[C@H](CCCNC(=N)N)N(C)C(=O)[C@@H](NC(C)=O)C(C)(C)SSC2(C)C)C(N)=O)C(C)(C)SSC1(C)C [compound 38] (I: Ac-[Pen][NMeR]SDTL[Pen][1Nal][dE][dNMeK]-NH2 / II: Ac-[Pen][NMeR]SDTL[Pen][1Nal][dE][dNMeK]-NH2; disulfide I:1-I:7, II:1-II:7; linker I:10-II:10 via Diglycolyl)	> 180 min	< 0.01 µM	< 0.01 µM	0.1 to 0.5 µM	
CC(=O)N[C@@H]1C(=O)N(C)[C@@H](CCCNC(=N)N)C(=O)N[C@@H](CO)C(=O)N[C@@H](CC(=O)O)C(=O)N[C@@H]([C@@H](C)O)C(=O)N[C@@H](CC(C)C)C(=O)N[C@H](C(=O)N[C@@H](Cc2ccc3ccccc3c2)C(=O)N[C@@H](CCC(=O)O)C(=O)N(C)[C@H](CCCCNC(=O)COCC(=O)NCCCC[C@H](C(N)=O)N(C)C(=O)[C@H](CCC(=O)O)NC(=O)[C@H](Cc2ccc3ccccc3c2)NC(=O)[C@H]2NC(=O)[C@H](CC(C)C)NC(=O)[C@H]([C@@H](C)O)NC(=O)[C@H](CC(=O)O)NC(=O)[C@H](CO)NC(=O)[C@H](CCCNC(=N)N)N(C)C(=O)[C@@H](NC(C)=O)C(C)(C)SSC2(C)C)C(N)=O)C(C)(C)SSC1(C)C [compound 41] (I: Ac-[Pen][NMeR]SDTL[Pen][2Nal]E[dNMeK]-NH2 / II: Ac-[Pen][NMeR]SDTL[Pen][2Nal]E[dNMeK]-NH2; disulfide I:1-I:7, II:1-II:7; linker I:10-II:10 via Diglycolyl)	> 180 min	< 0.01 µM	< 0.01 µM	0.1 to 0.5 µM	
CC(=O)N[C@@H]1C(=O)N(C)[C@@H](CCCNC(=N)N)C(=O)N[C@@H](CO)C(=O)N[C@@H](CC(=O)O)C(=O)N[C@@H]([C@@H](C)O)C(=O)N[C@@H](CC(C)C)C(=O)N[C@H](C(=O)N[C@@H](Cc2ccc(Cl)cc2Cl)C(=O)N[C@@H](CCC(=O)O)C(=O)N[C@H](CCCCNC(=O)COCC(=O)NCCCC[C@@H](NC(=O)[C@H](CCC(=O)O)NC(=O)[C@H](Cc2ccc(Cl)cc2Cl)NC(=O)[C@H]2NC(=O)[C@H](CC(C)C)NC(=O)[C@H]([C@@H](C)O)NC(=O)[C@H](CC(=O)O)NC(=O)[C@H](CO)NC(=O)[C@H](CCCNC(=N)N)N(C)C(=O)[C@@H](NC(C)=O)C(C)(C)SSC2(C)C)C(N)=O)C(N)=O)C(C)(C)SSC1(C)C [compound 42] (I: Ac-[Pen][NMeR]SDTL[Pen][Phe(2,4-Cl2)]E[dK]-NH2 / II: Ac-[Pen][NMeR]SDTL[Pen][Phe(2,4-Cl2)]E[dK]-NH2; disulfide I:1-I:7, II:1-II:7; linker I:10-II:10 via Diglycolyl)	51 min	< 0.01 µM	< 0.01 µM	0.1 to 0.5 µM	49 min
CC(=O)N[C@@H]1C(=O)N(C)[C@@H](CCCNC(=N)N)C(=O)N[C@@H](CO)C(=O)N[C@@H](CC(=O)O)C(=O)N[C@@H]([C@@H](C)O)C(=O)N[C@@H](CC(C)C)C(=O)N[C@H](C(=O)N[C@@H](Cc2ccc(Cl)c(Cl)c2)C(=O)N[C@@H](CCC(=O)O)C(=O)N[C@H](CCCCNC(=O)COCC(=O)NCCCC[C@@H](NC(=O)[C@H](CCC(=O)O)NC(=O)[C@H](Cc2ccc(Cl)c(Cl)c2)NC(=O)[C@H]2NC(=O)[C@H](CC(C)C)NC(=O)[C@H]([C@@H](C)O)NC(=O)[C@H](CC(=O)O)NC(=O)[C@H](CO)NC(=O)[C@H](CCCNC(=N)N)N(C)C(=O)[C@@H](NC(C)=O)C(C)(C)SSC2(C)C)C(N)=O)C(N)=O)C(C)(C)SSC1(C)C [compound 43] (I: Ac-[Pen][NMeR]SDTL[Pen][Phe(3,4-Cl2)]E[dK]-NH2 / II: Ac-[Pen][NMeR]SDTL[Pen][Phe(3,4-Cl2)]E[dK]-NH2; disulfide I:1-I:7, II:1-II:7; linker I:10-II:10 via Diglycolyl)	21 min	0.01 to 0.025 µM	< 0.01 µM	0.1 to 0.5 µM	

Reference: patent US9809623B2, “α4β7 peptide monomer and dimer antagonists” (Protagonist Therapeutics, Inc., priority 2014, dated 2017)
